Active and inactive are the calls of the source.
Columns and labels:
[1] = molecular target: Benomyl/methotrexate resistance protein (Candida albicans, UniProt P28873); assay: Candida albicans Mdr1 pump inhibition curves – singleplex, Cherry Pick1 hits, dose response (AID 588608); assay type: functional
[2] = molecular target: Multidrug resistance protein CDR1 (Candida albicans, UniProt P43071); assay: inhibition of Nile Red efflux via Candida CDR1 – S. cerevisiae AD1-8u, singleplex, Cherry Pick1 hits, dose response (AID 588606); assay type: functional
[3] = molecular target: Multidrug resistance protein CDR2 (Candida albicans (strain SC5314 / ATCC MYA-2876) (Yeast), UniProt P78595); assay: inhibition of Nile Red efflux via Candida CDR2 – S. cerevisiae AD1-8u, singleplex, Cherry Pick1 hits, dose response (AID 588604); assay type: functional
Interleukin-8 [4] = molecular target: T1, Interleukin-8 (Homo sapiens, UniProt P10145); assay: Dose Response confirmation of uHTS small molecule hits for cystic fibrosis induced NFkb Inhibitors in a TNFa-induced IL8 counterscreen.; assay type: functional; settings: read-out: IC50_Mean
Interleukin-8 [5] = molecular target: T1, Interleukin-8; assay: Dose Response confirmation of uHTS small molecule hits for cystic fibrosis induced NFkb Inhibitors in a PAF-induced IL8 counterscreen.; assay type: functional; settings: read-out: IC50_Mean
[6] = luciferase reporter signal suppression in cells – H4 neuroglioma cells, luminescence, dose response (AID 1990); assay type: functional, cell-based
BJ [7] = assay: BJ-TERT fibroblast viability loss – cell-based, RAS-independent, luminescence, dose response (AID 1933); assay type: functional; settings: Homo sapiens
[8] = Luminescence Cell-Based Dose Response HTS to Identify Inhibitors of 5'UTR Stem-Loop Driven Prion Protein mRNA Translation in H4 Neuroglioblastoma Cells. [Related pubchem assays: 1827 (Project Summary), 1813 (Primary HTS)]; assay type: functional
[9] = alpha-synuclein stem-loop luciferase translation blockers – H4 neuroglioma cells, luminescence, confirmation (AID 1988); assay type: functional, cell-based
BJ [10] = assay: cells; assay type: functional, cell-based; settings: Homo sapiens
BJ [11] = assay: BJ-TERT-LT-ST fibroblast viability loss – cell-based, RAS-independent, luminescence, dose response (AID 1935); assay type: functional; settings: Homo sapiens;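 note: BJ fibroblasts immortalized with TERT plus LT and ST oncogenes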
[12] = DRD fibroblast viability loss – cell-based, non-viral oncogenic, luminescence, dose response (AID 1934); assay type: functional; settings: Homo sapiens
[13] = molecular target: T2, Heat shock factor protein 1 (Mus musculus, UniProt P38532); assay: enhancement of HSF1-driven luciferase signal – cell-based, NIH3T3, luminescence, dose retest, confirmation (AID 435004); assay type: functional;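 note: stress induced by proteasome inhibitor MG132 added 30 min after compound; luciferase reporter driven by HSF1 response element in NIH3T3 cells; actives raise luminescence as potentiators of the MG132 stress response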
T2 sequence (P38532 whole entry): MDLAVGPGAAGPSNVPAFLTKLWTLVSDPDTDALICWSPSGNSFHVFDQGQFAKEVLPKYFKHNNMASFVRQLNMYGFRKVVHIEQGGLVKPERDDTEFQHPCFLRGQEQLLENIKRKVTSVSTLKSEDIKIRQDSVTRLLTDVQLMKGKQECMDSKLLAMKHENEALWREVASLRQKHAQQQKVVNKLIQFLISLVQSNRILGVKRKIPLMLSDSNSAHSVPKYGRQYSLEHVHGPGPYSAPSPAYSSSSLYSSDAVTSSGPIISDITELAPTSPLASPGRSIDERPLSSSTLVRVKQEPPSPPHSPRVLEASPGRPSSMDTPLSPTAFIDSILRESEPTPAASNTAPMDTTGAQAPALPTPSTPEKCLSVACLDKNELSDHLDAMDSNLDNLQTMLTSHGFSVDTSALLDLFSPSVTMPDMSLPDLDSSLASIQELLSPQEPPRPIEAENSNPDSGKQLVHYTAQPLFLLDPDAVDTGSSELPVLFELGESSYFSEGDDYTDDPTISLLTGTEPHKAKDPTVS

BJ [14] = assay: growth inhibition of engineered Ras-driven BJ cells – cell-based, alamar blue fluorescence, cherrypicked samples, dose response (AID 2631); assay type: functional; settings: Homo sapiens;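 note: confirmatory dose-response assay in RAS-dependent BJ fibroblasts engineered with TERT, LT and ST, with cytotoxicity read by fluorescence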
[15] = Fluorescence-based cell-based high throughput dose response assay for inhibitors of the interaction of nucleotide-binding oligomerization domain containing 2 (NOD2) and the receptor-interacting serine-threonine kinase 2 (RIPK2).; assay type: functional; settings: Homo sapiens
Beta Lactamase = Beta Lactamase (Pseudomonas aeruginosa, UniProt Q932Y6); assay: BLA reporter interference, concentration series – BLA reporter cells, FRET fluorescence, artefact control for NOD2-RIPK2 interaction inhibitor project, dose response (AID 651552); assay type: functional, cell-based
[16] = molecular target: T3, DNA repair protein RAD52 homolog (Homo sapiens, UniProt P43351); assay type: functional, biochemical
T3 sequence (P43351 whole entry): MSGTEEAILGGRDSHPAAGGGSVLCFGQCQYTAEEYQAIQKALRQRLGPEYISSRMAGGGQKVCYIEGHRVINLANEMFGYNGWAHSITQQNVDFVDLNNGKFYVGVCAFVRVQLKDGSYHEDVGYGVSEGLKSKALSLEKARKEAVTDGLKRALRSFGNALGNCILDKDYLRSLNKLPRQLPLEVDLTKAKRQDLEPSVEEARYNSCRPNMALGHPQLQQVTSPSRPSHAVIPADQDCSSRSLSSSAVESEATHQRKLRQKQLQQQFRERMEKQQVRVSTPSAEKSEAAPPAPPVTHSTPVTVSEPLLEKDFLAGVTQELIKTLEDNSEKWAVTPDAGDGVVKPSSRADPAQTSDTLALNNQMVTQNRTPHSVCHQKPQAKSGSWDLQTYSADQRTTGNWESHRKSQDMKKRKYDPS

[17] = molecular target: T4, Mitochondrial peptide methionine sulfoxide reductase (Bos taurus, UniProt P54149); assay type: functional;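 for IC50: absorbance read-out, biochemical high-throughput dose-response screen for MsrA inhibitors, confirmatory; recombinant bovine MsrA coupled to E. coli TrxB with NADPH and selenocystamine; potency is for inhibitors of MsrA activity on DMSO substrate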
[18] = Trypanosoma cruzi growth suppression in host cells – NIH3T3 host cells, beta-gal luminescence, confirmation (AID 2044); assay type: functional, cell-based;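 note: intracellular parasites grown in NIH/3T3 mouse fibroblasts as host cells; luminescent beta-galactosidase reporter signal from transgenic T. cruzi replicating inside host cells; inhibitors lower the luminescence signal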
[19] = NIH3T3 cell viability loss – ATP luminescence, mouse fibroblasts, counter-screen, dose response (AID 2010); assay type: functional, cell-based;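 note: cells exposed to compound for about 90 hours before reading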
[20] = molecular target: Heat shock protein HSP 90-alpha (Homo sapiens, UniProt P07900); assay type: functional, organism-based
[21] = NIH3T3 cell viability loss, ATP content – CellTiter-Glo luminescence, cherry-pick, set 2, cytotoxicity control for HSP40 inhibitor project, dose response (AID 624265); assay type: functional
[22] = molecular target: Ras and Rab interactor 1/Tyrosine-protein kinase ABL1 (Homo sapiens, UniProt P00519+Q13671); assay type: functional;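 note: biochemical TR-FRET dose-response test measuring inhibition of binding between Rin1 and Abl proteins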
[23] = molecular target: T4, Mitochondrial peptide methionine sulfoxide reductase; assay: Absorbance-based biochemical high throughput dose response assay for activators of Methionine sulfoxide reductase A (MsrA).; assay type: functional
[24] = molecular target: Photoreceptor-specific nuclear receptor (Homo sapiens, UniProt Q9Y5X4); assay type: functional, cell-based;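 note: CHO-S cells with Gal4-NCOR and VP16-NR2E3 two-hybrid luciferase reporter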
Paired box protein Pax-8 = Paired box protein Pax-8 (Homo sapiens, UniProt Q06710); assay: PAX8 transcriptional activity inhibition in RMG-I – RMG-I cells, luciferase, cherry-pick, dose response (AID 687027); assay type: functional, cell-based;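 note: luciferase reporter driven by Pax8 target thyroperoxidase promoter measured by SteadyGlo luminescence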
[25] = molecular target: T5, Histone-lysine N-methyltransferase NSD2 (Homo sapiens, UniProt O96028); assay type: biochemical
T5 sequence (O96028 whole entry): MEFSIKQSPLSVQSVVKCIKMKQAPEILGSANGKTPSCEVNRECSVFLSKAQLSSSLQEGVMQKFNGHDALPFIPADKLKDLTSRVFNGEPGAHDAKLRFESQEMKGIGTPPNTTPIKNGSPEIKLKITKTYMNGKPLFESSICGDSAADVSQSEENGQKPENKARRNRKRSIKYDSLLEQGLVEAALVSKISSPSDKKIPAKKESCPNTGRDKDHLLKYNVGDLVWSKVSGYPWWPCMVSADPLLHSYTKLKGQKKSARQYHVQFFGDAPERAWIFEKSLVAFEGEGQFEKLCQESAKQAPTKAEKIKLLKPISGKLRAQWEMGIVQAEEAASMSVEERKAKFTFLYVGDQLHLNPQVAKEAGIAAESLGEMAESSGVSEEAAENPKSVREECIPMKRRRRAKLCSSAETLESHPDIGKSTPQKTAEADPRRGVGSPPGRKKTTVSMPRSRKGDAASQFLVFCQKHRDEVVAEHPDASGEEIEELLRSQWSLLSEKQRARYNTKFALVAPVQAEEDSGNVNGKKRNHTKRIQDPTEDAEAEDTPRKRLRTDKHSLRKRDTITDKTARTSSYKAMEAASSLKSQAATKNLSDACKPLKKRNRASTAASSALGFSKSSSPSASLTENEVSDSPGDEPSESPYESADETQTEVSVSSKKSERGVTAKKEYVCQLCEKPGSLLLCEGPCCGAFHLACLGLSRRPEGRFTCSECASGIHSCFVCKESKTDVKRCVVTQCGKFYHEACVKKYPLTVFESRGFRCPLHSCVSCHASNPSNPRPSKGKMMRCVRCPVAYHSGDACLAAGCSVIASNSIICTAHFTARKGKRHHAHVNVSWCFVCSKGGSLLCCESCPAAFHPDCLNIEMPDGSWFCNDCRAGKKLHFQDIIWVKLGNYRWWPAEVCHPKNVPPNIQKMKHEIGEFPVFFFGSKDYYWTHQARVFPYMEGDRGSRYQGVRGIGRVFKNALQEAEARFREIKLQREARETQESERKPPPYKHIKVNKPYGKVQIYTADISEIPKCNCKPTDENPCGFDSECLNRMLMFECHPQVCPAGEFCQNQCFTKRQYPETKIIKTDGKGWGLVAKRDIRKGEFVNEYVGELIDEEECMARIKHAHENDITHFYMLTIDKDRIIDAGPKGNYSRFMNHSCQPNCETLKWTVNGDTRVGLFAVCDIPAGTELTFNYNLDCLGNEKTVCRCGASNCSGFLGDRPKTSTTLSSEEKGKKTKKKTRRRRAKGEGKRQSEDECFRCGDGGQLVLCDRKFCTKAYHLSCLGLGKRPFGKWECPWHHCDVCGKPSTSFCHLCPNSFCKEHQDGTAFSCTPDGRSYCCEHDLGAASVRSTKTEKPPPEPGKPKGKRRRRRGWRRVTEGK

[26] = molecular target: T6, Tyrosyl-DNA phosphodiesterase 2 (Homo sapiens, UniProt O95551); assay: potency against TDP2 phosphodiesterase activity – biochemical, epi absorbance, IC50, dose response (AID 743297)
T6 sequence (O95551 whole entry): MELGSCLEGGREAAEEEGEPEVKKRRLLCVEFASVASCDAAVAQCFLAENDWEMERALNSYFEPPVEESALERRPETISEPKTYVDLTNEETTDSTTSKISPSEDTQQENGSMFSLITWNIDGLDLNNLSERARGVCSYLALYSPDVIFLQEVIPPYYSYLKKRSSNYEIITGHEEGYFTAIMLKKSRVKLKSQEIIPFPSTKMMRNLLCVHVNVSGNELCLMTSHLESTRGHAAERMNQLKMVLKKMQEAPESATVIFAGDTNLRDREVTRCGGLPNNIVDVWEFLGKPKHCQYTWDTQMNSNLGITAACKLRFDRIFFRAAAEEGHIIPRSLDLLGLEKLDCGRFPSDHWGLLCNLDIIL

[27] = molecular target: 1-phosphatidylinositol 4,5-bisphosphate phosphodiesterase gamma-1 (Homo sapiens, UniProt P19174); assay: Counterscreen for inhibitors of phospholipase C isozymes (PLC-B3): Fluorescence-based biochemical high throughput dose response assay to identify inhibitors of phospholipase C isozymes (PLC-gamma1).
[28] = general cell-killing toxicity readout – plate reader, dry powder samples, cytotoxicity control for PAX8 inhibitor project, dose response (AID 743021); assay type: functional, cell-based
[29] = molecular target: 1-phosphatidylinositol 4,5-bisphosphate phosphodiesterase beta-3 (Homo sapiens, UniProt Q01970); assay: Fluorescence-based biochemical high throughput dose response assay to identify inhibitors of phospholipase C isozymes (PLC-B3).
[30] = molecular target: RNA-editing ligase 1, mitochondrial (Trypanosoma brucei brucei, UniProt P86926); assay: inhibition of trypanosome RNA editing ligase – biochemical, fluorescence, Trypanosoma brucei, dose response (AID 1117295); assay type: functional
[31] = molecular target: T7, ATP-dependent translocase ABCB1 (Homo sapiens, UniProt P08183); assay: inhibition of BCRP-mediated JC-1 efflux – Ig-MXP3 cells, flow cytometry, set 2, dose response (AID 504566); assay type: functional; settings: read-out: EC50_MICROM_;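 note: flow cytometry median green fluorescence of retained JC-1 dye; potency of efflux pump inhibition measured as rising substrate retention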
[32] = molecular target: T7, ATP-dependent translocase ABCB1; assay: P-gp JC-1 efflux blockade concentration-response – Jurkat-DNR cells, flow cytometry, set 2, dose response (AID 504569); assay type: functional; settings: read-out: EC50_MICROM_;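 note: potency of pump inhibitors that raise cellular JC-1 green fluorescence up to the nicardipine level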
[33] = inhibition of ARNT PAS-B/TACC3 complex formation – biochemical, AlphaScreen, cherry-picked samples, confirmation (AID 651703); assay type: functional, Homo sapiens;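 note: His-tagged ARNT PAS-B domain paired with GST-TACC3 E629A dimer coactivator fragment; potency of inhibitors that break up the complex and lower AlphaScreen signal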

T4 sequence (P54149 whole entry): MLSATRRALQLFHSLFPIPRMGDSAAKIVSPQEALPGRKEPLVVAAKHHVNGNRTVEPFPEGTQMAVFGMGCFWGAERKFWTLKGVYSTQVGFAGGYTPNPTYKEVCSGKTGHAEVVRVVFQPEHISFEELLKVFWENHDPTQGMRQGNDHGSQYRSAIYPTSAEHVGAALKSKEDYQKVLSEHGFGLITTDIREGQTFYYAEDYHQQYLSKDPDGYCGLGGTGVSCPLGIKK
T7 sequence (P08183 whole entry): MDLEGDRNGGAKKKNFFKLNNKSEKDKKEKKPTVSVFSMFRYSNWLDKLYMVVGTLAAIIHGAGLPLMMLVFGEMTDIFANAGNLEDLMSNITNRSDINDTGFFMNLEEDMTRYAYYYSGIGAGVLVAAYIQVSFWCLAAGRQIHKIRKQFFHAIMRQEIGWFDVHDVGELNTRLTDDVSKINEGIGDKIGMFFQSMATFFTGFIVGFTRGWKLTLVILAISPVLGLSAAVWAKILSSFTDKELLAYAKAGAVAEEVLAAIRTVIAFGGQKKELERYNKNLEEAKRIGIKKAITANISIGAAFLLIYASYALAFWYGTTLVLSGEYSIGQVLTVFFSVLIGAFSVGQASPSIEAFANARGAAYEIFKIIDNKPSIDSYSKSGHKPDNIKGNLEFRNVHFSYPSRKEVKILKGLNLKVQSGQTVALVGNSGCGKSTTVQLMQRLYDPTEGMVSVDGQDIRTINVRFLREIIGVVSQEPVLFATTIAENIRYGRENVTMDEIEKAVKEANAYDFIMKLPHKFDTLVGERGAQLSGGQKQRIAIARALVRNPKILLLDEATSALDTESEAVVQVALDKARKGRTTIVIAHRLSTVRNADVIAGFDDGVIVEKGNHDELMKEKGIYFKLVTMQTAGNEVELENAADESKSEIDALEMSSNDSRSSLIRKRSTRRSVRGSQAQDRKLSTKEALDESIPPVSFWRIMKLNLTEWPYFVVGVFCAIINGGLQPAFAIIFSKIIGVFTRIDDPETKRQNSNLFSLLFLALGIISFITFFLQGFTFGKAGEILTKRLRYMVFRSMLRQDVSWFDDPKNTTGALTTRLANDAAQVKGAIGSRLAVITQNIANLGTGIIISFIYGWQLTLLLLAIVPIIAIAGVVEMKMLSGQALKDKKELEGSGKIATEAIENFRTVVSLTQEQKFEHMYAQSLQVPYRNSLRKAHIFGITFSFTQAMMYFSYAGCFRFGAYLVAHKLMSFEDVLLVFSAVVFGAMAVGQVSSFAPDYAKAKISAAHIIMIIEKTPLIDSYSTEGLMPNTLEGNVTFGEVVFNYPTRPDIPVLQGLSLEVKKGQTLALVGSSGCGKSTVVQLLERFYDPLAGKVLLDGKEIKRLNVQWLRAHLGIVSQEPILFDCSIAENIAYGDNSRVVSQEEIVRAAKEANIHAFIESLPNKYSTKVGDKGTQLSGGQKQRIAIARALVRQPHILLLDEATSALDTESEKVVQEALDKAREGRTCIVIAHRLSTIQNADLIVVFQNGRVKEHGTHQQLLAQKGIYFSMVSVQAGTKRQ
T1 sequence (P10145 whole entry): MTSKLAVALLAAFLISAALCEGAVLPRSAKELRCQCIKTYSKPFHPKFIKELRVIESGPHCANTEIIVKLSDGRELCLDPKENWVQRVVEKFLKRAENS
Sequence of Photoreceptor-specific nuclear receptor (Q9Y5X4 whole entry, the tested form may be a part): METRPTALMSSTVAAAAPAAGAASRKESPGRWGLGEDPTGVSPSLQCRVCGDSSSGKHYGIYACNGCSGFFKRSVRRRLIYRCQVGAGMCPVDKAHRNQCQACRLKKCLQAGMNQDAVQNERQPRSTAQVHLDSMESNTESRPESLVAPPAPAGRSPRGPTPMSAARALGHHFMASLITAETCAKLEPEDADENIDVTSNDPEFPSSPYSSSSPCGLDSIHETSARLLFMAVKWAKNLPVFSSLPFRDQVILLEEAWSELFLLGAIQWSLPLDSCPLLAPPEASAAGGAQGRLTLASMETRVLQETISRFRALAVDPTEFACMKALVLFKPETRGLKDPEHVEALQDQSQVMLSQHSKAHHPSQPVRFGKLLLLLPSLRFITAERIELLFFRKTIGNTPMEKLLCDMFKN
Sequence of Paired box protein Pax-8 (Q06710 whole entry): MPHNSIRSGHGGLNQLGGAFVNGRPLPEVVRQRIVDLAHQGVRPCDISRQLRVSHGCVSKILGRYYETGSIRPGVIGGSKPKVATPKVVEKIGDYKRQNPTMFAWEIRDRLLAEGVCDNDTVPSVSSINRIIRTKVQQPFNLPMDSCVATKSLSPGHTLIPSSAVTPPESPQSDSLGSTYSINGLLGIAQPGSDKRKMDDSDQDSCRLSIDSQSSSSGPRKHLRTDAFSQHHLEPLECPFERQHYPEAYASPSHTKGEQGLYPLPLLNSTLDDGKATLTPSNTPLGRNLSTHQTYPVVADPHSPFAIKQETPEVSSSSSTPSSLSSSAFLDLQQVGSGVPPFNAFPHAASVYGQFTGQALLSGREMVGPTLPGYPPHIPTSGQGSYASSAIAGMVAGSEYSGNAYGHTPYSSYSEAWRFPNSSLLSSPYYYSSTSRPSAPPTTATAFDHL
Sequence of 1-phosphatidylinositol 4,5-bisphosphate phosphodiesterase gamma-1 (P19174 whole entry): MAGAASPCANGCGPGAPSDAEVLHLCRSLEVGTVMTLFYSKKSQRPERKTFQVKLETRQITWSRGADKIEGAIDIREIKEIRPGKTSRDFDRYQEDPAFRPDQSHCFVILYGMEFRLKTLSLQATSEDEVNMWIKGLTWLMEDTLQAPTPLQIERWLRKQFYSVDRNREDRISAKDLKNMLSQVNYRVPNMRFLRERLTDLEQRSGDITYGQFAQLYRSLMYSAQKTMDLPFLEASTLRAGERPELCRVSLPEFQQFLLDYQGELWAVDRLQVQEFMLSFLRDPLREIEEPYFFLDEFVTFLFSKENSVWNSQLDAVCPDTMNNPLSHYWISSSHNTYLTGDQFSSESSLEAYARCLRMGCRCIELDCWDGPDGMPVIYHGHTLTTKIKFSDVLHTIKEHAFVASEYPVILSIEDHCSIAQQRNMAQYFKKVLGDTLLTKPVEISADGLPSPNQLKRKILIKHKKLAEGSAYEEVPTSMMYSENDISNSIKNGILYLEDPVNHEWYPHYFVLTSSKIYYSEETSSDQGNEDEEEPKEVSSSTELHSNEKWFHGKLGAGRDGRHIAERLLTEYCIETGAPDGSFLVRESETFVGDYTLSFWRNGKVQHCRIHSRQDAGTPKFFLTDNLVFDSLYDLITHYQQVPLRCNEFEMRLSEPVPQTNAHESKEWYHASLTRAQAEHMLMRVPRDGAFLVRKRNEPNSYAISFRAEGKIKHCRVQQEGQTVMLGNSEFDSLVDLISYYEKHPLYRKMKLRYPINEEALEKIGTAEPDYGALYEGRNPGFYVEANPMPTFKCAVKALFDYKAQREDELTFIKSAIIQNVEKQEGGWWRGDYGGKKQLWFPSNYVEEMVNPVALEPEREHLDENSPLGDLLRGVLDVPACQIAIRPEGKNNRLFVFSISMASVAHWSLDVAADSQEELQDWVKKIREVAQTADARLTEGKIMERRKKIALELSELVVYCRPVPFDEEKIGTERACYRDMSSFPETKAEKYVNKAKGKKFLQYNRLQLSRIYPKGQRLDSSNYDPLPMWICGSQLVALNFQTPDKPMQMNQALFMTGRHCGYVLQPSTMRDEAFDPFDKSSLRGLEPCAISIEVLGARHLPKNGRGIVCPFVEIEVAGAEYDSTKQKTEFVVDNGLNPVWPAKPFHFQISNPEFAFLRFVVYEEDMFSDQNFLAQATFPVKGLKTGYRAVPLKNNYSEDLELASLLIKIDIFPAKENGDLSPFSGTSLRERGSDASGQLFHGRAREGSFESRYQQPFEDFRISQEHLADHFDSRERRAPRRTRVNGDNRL
Sequence of Beta Lactamase (Q932Y6 whole entry): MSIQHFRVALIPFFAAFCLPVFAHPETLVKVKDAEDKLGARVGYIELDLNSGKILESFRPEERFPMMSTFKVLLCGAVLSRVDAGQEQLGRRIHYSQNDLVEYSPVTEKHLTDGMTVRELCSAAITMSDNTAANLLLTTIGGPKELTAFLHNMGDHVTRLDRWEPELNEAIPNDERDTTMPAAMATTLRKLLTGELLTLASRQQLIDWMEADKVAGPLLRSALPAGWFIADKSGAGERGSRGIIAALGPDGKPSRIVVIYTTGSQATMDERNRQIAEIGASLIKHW
Sequence of RNA-editing ligase 1, mitochondrial (P86926 whole entry): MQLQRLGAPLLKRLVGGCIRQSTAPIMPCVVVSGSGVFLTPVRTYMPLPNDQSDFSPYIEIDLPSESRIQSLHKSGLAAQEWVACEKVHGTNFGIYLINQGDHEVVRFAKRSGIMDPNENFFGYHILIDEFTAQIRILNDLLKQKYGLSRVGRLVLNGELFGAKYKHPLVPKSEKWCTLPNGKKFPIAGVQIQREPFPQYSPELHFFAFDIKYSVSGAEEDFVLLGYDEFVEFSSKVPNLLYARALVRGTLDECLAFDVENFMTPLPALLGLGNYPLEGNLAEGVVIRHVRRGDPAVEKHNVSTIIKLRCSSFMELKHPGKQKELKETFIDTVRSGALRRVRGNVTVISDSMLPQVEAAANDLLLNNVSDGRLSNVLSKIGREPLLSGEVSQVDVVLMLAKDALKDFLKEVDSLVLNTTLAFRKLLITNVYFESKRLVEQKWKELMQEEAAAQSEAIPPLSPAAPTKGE

COc1cc(OC)cc(-c2sc3ccc(OC)cc3c2-c2ccc(OCCN3CCCCC3)cc2)c1
EC50 [1]: 10.6 µM (active)
EC50 [2]: 10.7 µM (active)
EC50 [3]: 7.51 µM (active)

C=Cc1ccc(CC2(C)C(=O)Nc3ccc(-c4cccnc4)cc32)cc1 (stereo not drawn)
IC50 (Interleukin-8 [4]): 45.1 µM (inactive)
IC50 (Interleukin-8 [5]): 25.5 µM (inactive)

COc1ccc(/N=C2\S/C(=C\c3ccc(Cl)c([N+](=O)[O-])c3)C(=O)N2CCN(C)C)cc1
EC50 [6]: > 120 µM (not active)
EC50 (BJ [7]): 3.18 µM (inconclusive)
EC50 [8]: 8.46 µM (active)
EC50 [9]: 8.97 µM (active)
EC50 (BJ [10]): 9.3 µM (inconclusive)
EC50 (BJ [11]): 3.03 µM (inconclusive)
EC50 [12]: 2.8 µM (inconclusive)
EC50 [13]: 7.54 µM (active)
EC50 (BJ [14]): 1.16 µM (active)
IC50 [15]: 1.5 µM (active)
IC50 (Beta Lactamase): 49.7 µM (inactive)
AC50 [16]: 10.8 µM (active)

O=C(O)CC1SC(N/N=C/C=C/c2ccccc2)=NC1=O (stereo not drawn)
IC50 [17]: 97.5 µM (inactive)

CCC(C)n1ncn(-c2ccc(N3CCN(c4ccc(OCC5COC(Cn6cncn6)(c6ccc(Cl)cc6Cl)O5)cc4)CC3)cc2)c1=O (stereo not drawn) [ITRACONAZOLE]
EC50 [6]: > 120 µM (not active)
EC50 [8]: 50 µM (active)
EC50 [9]: > 120 µM (not active)
EC50 [18]: 0.1 µM (active)
EC50 [19]: > 60 µM (not active)
AC50 [20]: < 0.195 µM (active)
AbsAC35_uM [21]: 105.6 µM

O=C1C(=O)c2cccnc2-c2ncccc21
IC50 [22]: 6.59 µM (active)
EC50 [23]: 3.64 µM (active)
IC50 [24]: 12.1 µM (inactive)
AC50 (Paired box protein Pax-8): 3.32 µM (active)
AC50 [25]: 0.981 µM (active)
IC50 [26]: 12.5 µM (inactive)
IC50 [27]: 11.2 µM (inactive)
AC50 [28]: 8.53 µM (active)
IC50 [29]: > 123 µM (inactive)
IC50 [30]: 3.51 µM (active)

Cc1ccc(-c2cc3nc(-c4ccccc4)cc(N4CCN(C(=O)c5ccco5)CC4)n3n2)cc1
EC50 [31]: 0.95 µM (active)
EC50 [32]: 2.41 µM (active)

CCOc1ccc(Nc2nc(N)nc(CN(C)C3CCCCC3)n2)cc1
AC50 [33]: 71.6 µM (active)

Reference: ChEMBL document CHEMBL1201862, “PubChem BioAssay data set” (2004)
